In US5093325A, “Combination preparation having antithrombotic action” (priority 1989, dated 1992):

Tests used:
[1] = system: collagen-stimulated blood platelets; assay: Inhibition of collagen-induced thrombocytopenia in anesthetized guinea pigs; assay type: in vivo, guinea pig; details: for % Thrombocytopenia Inhibition: average ± SEM
Description: Reversible thrombocytopenias are produced on anesthetized guinea pigs by injection of collagen ([…] i.v.). The cause of these thrombocytopenias is an aggregate formation of the collagen-stimulated blood platelets and the embolization of these platelet aggregates in the lungs, where they then lodge and thus cause the observed drops of the platelet count in the blood (thrombocytopenias).

[2] = system: occluding platelet thrombi on mesenteric arterioles; assay: Thrombogenic ADP concentration for occluding platelet thrombi on previously traumatized mesenteric arterioles; assay type: in vivo, guinea pig; details: for Thrombogenic ADP Concentration, Increase: N 5, average
Method: A mesenteric loop is placed on an anesthetized guinea pig and is superfused with a moderately heated solution of common salt. Under intravital microscopic control the vascular wall of a mesenteric arteriole (020-50 m) is traumatized by a series of electric pulses. By subsequent local application of increasing concentrations of ADP (adenosine diphosphate) solution a thrombogenic ADP concentration is determined, at which an occluding platelet thrombus forms on the pretraumatized site of the arteriole. This thrombogenic ADP concentration produces vascular-specific and reproducible thrombi in the respective arteriole.

[3] = system: thrombus formation in carotid arteries; assay: Thrombus formation in carotid arteries previously traumatized by pressure + cold (thrombus hemoglobin content); assay type: in vivo, guinea pig
Method: A 2-cm-long piece of the external left carotid artery on an anesthetized guinea pig is carefully exposed and drawn over a small metal plate. Then the vascular wall is weighted down over a length of 1 cm for 3 minutes with a steel stamp weighing 200 g, cooled to -15° C. In this way, a massive local vascular trauma is caused on a large artery and a red thrombus develops on the traumatized site. Three hours after the trauma the traumatized segment and an equally long piece of the contralateral artery are removed, asked and put in hemoglobin test reagent. The hemoglobin contents of the two segments are determined 24 hours later. The net hemoglobin content of the red thrombus as the measurement of the thrombus size is calculated from the difference of these hemoglobin contents.

human platelets = assay: Inhibition of collagen-stimulated aggregation of human platelets in platelet-rich plasma (aggregometer); assay type: cell-based
Method: (§1) Human platelet-rich plasma (PRP) is incubated in an aggregometer at 37° C. and mixed with […] of collagen to cause aggregation. […] The course of the aggregation is recorded in the aggregometer. 10 minutes after collagen addition, the samples are centrifuged at 3000 rpm and the supernatant is tested with an enzyme linked immunosorbent assay (ELISA) for its content of plasminogen activator inhibitor-1 (PAI-1) and with a radioimmunoassay (RIA) for the content of platelet-derived growth factor (PDGF).

[4] = system: PAI-1 release of human platelets; assay: Inhibition of PAI-1 release from collagen-stimulated human platelets (ELISA); assay type: cell-based; details: Platelet, N = 6, % of control
Method: as §1

[5] = system: PDGF release of human platelets; assay: Inhibition of PDGF release from collagen-stimulated human platelets (RIA); assay type: cell-based; details: Platelet, N = 6, % of control
Method: as §1

CC(=O)Oc1ccccc1C(=O)O [ASA, acetylsalicylic acid]
thrombocytopenia inhibition, in words ([1]; ASA 0.5 mg/kg i.v.): weakly inhibiting | % Thrombocytopenia Inhibition ([1]; ASA 0.5 mg/kg i.v., N 8, p less than 0.05 vs control): 17 ± 3% | change of thrombogenic ADP concentration, in words ([2]; ASA 10 mg/kg i.v.): does not change the thrombogenic ADP concentration | Thrombogenic ADP Concentration, Increase ([2]; ASA 10 mg/kg, SEM ±0.13, n.s.): 0.06 | effect on thrombus formation in the carotid artery, in words ([3]; ASA 5 mg/kg i.v.): no significant effect | Thrombus Hb content, Median ([3]; ASA 5 mg/kg, N 10, Q 25/Q 75 -0.1/13.8, n.s., control 8.6): 3.4 µmol

CCC#CC[C@H](C)[C@H](O)C#C[C@@H]1[C@H]2C/C(=C/COCC(=O)O)C[C@H]2C[C@H]1O [Cicaprost]
platelet aggregation inhibition, in words (human platelets; Cicaprost 10^-10 or 10^-9 M, separately): ineffective | inhibition at 0.1 µM (human platelets; Homo sapiens, Platelet, Cicaprost 10^-7 M, N = 6, % of control): 95 ± 3% | inhibition at 0.01 µM (human platelets; Homo sapiens, Platelet, Cicaprost 10^-8 M, N = 6, % of control): 95 ± 4% | inhibition at 0.001 µM (human platelets; Homo sapiens, Platelet, Cicaprost 10^-9 M, N = 6, % of control): 0% | inhibition at 0.0001 µM (human platelets; Homo sapiens, Platelet, Cicaprost 10^-10 M, N = 6, % of control): 4 ± 3% | inhibition at 0.1 µM ([4]; Cicaprost 10^-7 M): 80 ± 5% | inhibition at 0.01 µM ([4]; Cicaprost 10^-8 M): 72 ± 3% | inhibition at 0.001 µM ([4]; Cicaprost 10^-9 M): 0% | inhibition at 0.0001 µM ([4]; Cicaprost 10^-10 M): 0% | inhibition at 0.1 µM ([5]; Cicaprost 10^-7 M): 81 ± 1% | inhibition at 0.01 µM ([5]; Cicaprost 10^-8 M): 81 ± 3% | inhibition at 0.001 µM ([5]; Cicaprost 10^-9 M): 3 ± 3% | inhibition at 0.0001 µM ([5]; Cicaprost 10^-10 M): 1 ± 2% | thrombocytopenia inhibition, in words ([1]; Cicaprost 1 ng/kg/min i.v., separately): ineffective | % Thrombocytopenia Inhibition ([1]; Cicaprost 1 ng/kg/min i.v., N 6, n.s.): 8 ± 5% | % Thrombocytopenia Inhibition ([1]; Cicaprost 3 ng/kg/min, N 6, p less than 0.05 vs control): 36 ± 4% | higher dose of Cicaprost alone needed for the effect of the combination ([1]; vs 1 ng/kg/min i.v. in combination with ASA 0.5 mg/kg): three-fold higher dose | higher dosage of Cicaprost alone needed for the antithrombotic action of the combination ([2]; 100 ng/kg/min i.v. alone vs 10 ng/kg/min in combination): 10 fold | change of thrombogenic ADP concentration, in words ([2]; Cicaprost 10 ng/kg/min i.v.): not significantly effective | Thrombogenic ADP Concentration, Increase ([2]; Cicaprost 10 ng/kg/min, SEM ±0.39, n.s.): 0.36 | Thrombogenic ADP Concentration, Increase ([2]; Cicaprost 30 ng/kg/min, SEM ±0.20, p less than 0.05 vs control): 1.02 | increase of the thrombogenic ADP concentration ([2]; Cicaprost 100 ng/kg/min i.v., N=5): 1.32±0.2 log M | Thrombogenic ADP Concentration, Increase ([2]; Cicaprost 100 ng/kg/min, SEM ±0.20, p less than 0.05 vs control): 1.32 | Thrombus Hb content, Median ([3]; Cicaprost 0.3 ng/kg/min, N 10, Q 25/Q 75 8.0/25.0, n.s., control 8.6): 12.4 µmol | Thrombus Hb content, Median ([3]; Cicaprost 1.0 ng/kg/min, N 10, Q 25/Q 75 0.2/5.8, significant vs control 8.6): 1.9 µmol | Thrombus Hb content, Median ([3]; Cicaprost 3.0 ng/kg/min, N 11, Q 25/Q 75 -0.4/0.7, significant vs control 8.6): 0 µmol | effect on thrombus formation in the carotid artery, in words ([3]; dosage printed C.3 ng/kg/min i.v.): significantly effective
